How the values were obtained:
GAA = molecular target: T1, GAA (Homo sapiens, UniProt P10253); assay: Binding of OPLS to GAA by fluorescence spectroscopy; conditions: spectroscopic titration
T1 construct: Full length recombinant rhGAA was produced in Human Kidney Embryo Cells for our use by Creative Biomart; purchased Creative Biomart (Shirley, N.Y.); host or cells: Human Kidney Embryo Cells
Method: The binding of OPLS to several therapeutic proteins was evaluated using fluorescence spectroscopy (FIG. 2).

TGF-β = assay: Cytokine profile of BMDCs in vitro, TGF-β ELISA; format: cell-based, HA mice; conditions: 1 μg/ml FVIII with 0-50 mM OPLS, 48 hours, n=4
Method: Generation of bone marrow derived dendritic cells (BMDC): Bone marrow was isolated from 6 to 8 week old naïve HA. Briefly, bone marrow was cultured in RPMI media supplemented with […] (low endotoxin), 2-mercaptoethanol, Pen/Strep and […] GMCSF. Media was changed on days 3, 6 and 8 of culture and DCs were used on day 9. BMDC are then harvested and used as needed. To verify the differentiation of bone marrow cells into DCs, CD11c surface expression was confirmed by flow cytometry using anti-CD11c-FITC antibody with appropriate isotope controls.
Effects of OPLS on cytokine profile of BMDCs in vitro: The effects of OPLS on cytokine secretion by dendritic cells were investigated. On day 9 BMDCs, generated as above, were treated with FVIII as an antigen in the presence of increasing dose of OPLS. Changes in production of pro-inflammatory cytokines TNF-α and IL12p70 as well as the regulatory cytokine TGF-β were monitored as a function of dose. BMDCs were exposed to 1 μg/ml FVIII with increasing dose of OPLS (0, 0.5, 1, 10, 25, 50 mM). 1 M stock of OPLS was prepared by adding the appropriate amount of OPLS directly to RPMI media, and pH was adjusted using sterile 3N and 1N NaOH. […] TGF-β, TNF-α and IL-12p70 concentrations were determined using standard ELISA (R&D System Inc. Minneapolis, Minn., USA or Invitrogen […], Calif.).

[1] = PK of FVIII in the presence and absence of OPLS; format: in vivo, HA mice
anti-GAA antibody titers = assay: Effect of OPLS on immunogenicity of GAA protein; format: in vivo, mice; conditions: 5 mg dose with 1 μg GAA, 4 weekly s.c., 2 week rest
Method: Materials and Methods: GAA Source: Full length recombinant rhGAA was produced in Human Kidney Embryo Cells for our use by Creative Biomart (Shirley, N.Y.); OPLS Source: Sigma-Aldrich (St. Louis, Mo.). n=8 animals/group were immunized with 4 weekly s.c. injections of 1 μg of GAA in 100 μl of either sterile TRIS for the free group or in 5 mg OPLS in sterile TRIS for the OPLS-GAA group. A group of 8 mice will receive the same dose of CBrhGAA in 5 mg O-phospho-D-serine (OPDS) solution as a negative control. After a 2 week rest period, a blood sample from the saphenous vein will be collected. Samples were stored at −80° C. until analysis. These samples were then analyzed for anti-GAA Ab titers. Anti-GAA antibody titers were measured as follows: ELISA plate (maxisorp, NUNC) was coated with 50 μl of 5 μg/ml of sterile rhGAA in sodium carbonate-bicarbonate buffer pH =9.6. The plate was incubated overnight at 4° C. The plate was washed six times with PBS containing 0.05% Tween 20 (PBS-T, 250 μl/well) using an automated plate washer. The plate was blocked with PBS containing 1% BSA (300 μl/well) as the block buffer for 2 hr at 37° C. […] The reaction was stopped with 2 N sulfuric acid and read immediately at 450 nm using a micro-plate reader. The titer values are quantitated using a statistical endpoint method as described by Frey et al. Control plasma samples were run on each plate. […]

anti-KLH IgG titer = assay: 28-day repeat dose TDAR study, anti-KLH IgG; format: in vivo, CD-1 mice; conditions: 28 daily doses, any OPLS dose
Excerpt: FIG. 20. Anti-KLH IgG titer levels obtained from a short term, repeat dose (28 daily doses) TDAR study conducted in CD-1 mice.

[2] = Plasma creatine kinase and injection site after 28 daily s.c. injections of OPLS; format: in vivo, CD-1 mice
Excerpt: FIG. 22. Plasma Creatine Kinase (CK: an enzyme with high expression in myocytes, elevation of plasma CK is an indication of damage to muscle tissue) activity levels after 28 daily s.c. injections of OPLS to CD-1 mice.

N[C@@H](COP(=O)(O)O)C(=O)O [OPLS, O-Phospho-L-Serine]
Binding affinity of GAA for OPLS (GAA): lowest affinity
TGF-β production by BMDC (TGF-β): dose dependent increase
FVIII plasma exposure after intravenous co-administration ([1]; iv, FIG. 4): slight increase
Bioavailability after subcutaneous co-administration ([1]; sc co-administration vs biotherapeutic alone): improves
Lymphatic uptake from the subcutaneous space ([1]; sc co-administration vs biotherapeutic alone, FIGS. 5A and 5B): improves
Anti-GAA antibody titers vs GAA alone (anti-GAA antibody titers): lower
Anti-KLH IgG titer levels vs vehicle (anti-KLH IgG titer): No statistical significance
Plasma creatine kinase activity vs vehicle [2]: No statistical significance
Injection site pathology at necropsy ([2]; macroscopic evaluation): No visible injection site pathology

Reference: US20220016241A1, “COMPOSITIONS AND METHODS FOR REDUCING ANTIGEN-SPECIFIC IMMUNOGENICITY” (The Research Foundation for The State University of New York, priority 2013, published 2022)
